This note sets out measurements from paper PMC7999199, “Novel Cationic Meso-Arylporphyrins and Their Antiviral Activity against HSV-1” (Pharmaceuticals, 2021).

SMILES strings stand for the structures. Like-named read-outs stand apart in the source and are kept apart here.

In one data set the test system is Vero cells. The experiment in a line: Vero cell viability, MTT test, 72 h. The data set is classed as cell-based, African green monkey. As to conditions: Vero cells; for CC50: Pluronic F-127 (F127) micellar formulation, MTT, 72 h. On the procedure:
(§1) Before testing antiviral activity, the effect of porphyrins dissolved in PBS and Pluronic F-127 on the viability of Vero cells was evaluated. Cells were incubated for 72 h using different concentrations of porphyrins (0.39–100 μM). Viability was assessed using the MTT test (Figure S13, Table S1, Supplementary Information). The viability of Vero cells depends on the porphyrins’ structure and formulation.
(§2) Cell viability was assessed by MTT reduction assay. Briefly, confluent monolayer Vero cells in 96-well plates (15000 cells/well) were incubated for 72 h with different concentrations of the compounds ranging from 0.39 µM to 100 µM in DMEM-1% FCS at 36.8 °C in 5% CO2 atmosphere. Next, cells were incubated for 1 h with 1.0 mg/mL of 3-(4,5-dimethylthiazol-2-y1)-2,5-diphenyltetrazolium bromide (MTT, PanEco, Moscow, Russia) at 36.8 °C, and then the solution was removed, and precipitated formazan was diluted in DMSO (PanEco, Moscow, Russia). The solution was read on a spectrophotometer at 540 nm. For each concentration, the average cell viability was calculated from the data of three experiments with three replicates each and was expressed as a percentage compared to the untreated cells (100%).
(§3) Table s1. Vero cell viability after exposure to 3a, 3b, TMEPyP compounds dissolved in PBS and Pluronic F-127. Different concen-
(§4) trations of compounds were applied to the cell monolayer and after incubation for 3 days, the number of living cells was calculated
(§5) in the MTT test. Each point represents the mean ± standard deviation of three experiments with […] each. n.d. –not done.
(§6) Compound Concentration, µM/L Viability % ±s.d.

Data set [1] in a line: Vero cell viability, MTT test, 72 h. The data set is classed as cell-based, African green monkey. As to conditions: African green monkey, Vero cells, MTT; for viability at 72 h, 0.39 µM: 0.39 µM/L; for viability at 72 h, 0.39 µM / viability at 72 h, 0.78 µM / viability at 72 h, 1.56 µM / viability at 72 h, 3.13 µM / viability at 72 h, 6.25 µM / viability at 72 h, 12.5 µM / viability at 72 h, 25 µM / viability at 72 h, 50 µM / viability at 72 h, 100 µM: Vero, 3 days, read-out: Viability % ±s.d.; for viability at 72 h, 0.78 µM: 0.78 µM/L; for viability at 72 h, 1.56 µM: 1.56 µM/L; for viability at 72 h, 3.13 µM: 3.13 µM/L; for viability at 72 h, 6.25 µM: 6.25 µM/L; for viability at 72 h, 12.5 µM: 12.50 µM/L; for viability at 72 h, 25 µM: 25 µM/L; for viability at 72 h, 50 µM: 50 µM/L; for viability at 72 h, 100 µM: 100 µM/L; for CC50 at 72 h: dissolved in PBS. On the procedure:
as §1, §2, §3, §4, §5, §6

The next data set deals with HSV-1 (strain RD). Description: Virucidal effect on HSV-1: virus incubated 2 h with compound, residual titer by CPE in Vero cells. Type of data set: cell-based, herpes simplex virus type 1. The note with it: for IC50: Human alphaherpesvirus 1, Vero, HSV-1. On the procedure:
Next, the virucidal effect of the drugs on HSV-1 in PBS and Pluronic F-127 was studied, in accordance with CC50 (Figure 5). The virucidal activity tests were performed by incubating HSV-1 with different concentrations of 3a,b and TMePyP for 2 h at a temperature of 36.8 °C and 5% CO2. Untreated viral suspensions were used as a control. Then, samples were added to a Vero culture seeded in 96-well plates, and the residual virus content was evaluated by developing a cytopathic effect on the fourth day of cultivation.
HSV-1 at tenfold dilutions DMEM-1% FCS (900 µL) was incubated with different concentration of the compounds (100 µL) at the final concentration ranging from 3 µM to 100 µM in DMEM-1% FCS or without of compound, each sample in volume 1 mL, for 2 h at 36.8 °C in 5% CO2 atmosphere. After treatment, the samples were applied to the Vero cell (the day before, cells were seeded at the rate of 15,000 cells/well in […] DMEM-5% FCS in 96-well plates) monolayers in 96-well plates (100 µL/well), and, after 4 days of cultivation at 36.8 °C in 5% CO2 atmosphere, titers were calculated based on the development of CPE, and the inhibitory activity of each compounds was calculated in relation to the control (HSV-1 without compounds). Data are reported as means of three independent assays, each run in triplicate.
Figure 5 Virucidal activity of 3a (a), 3b (b), TMePyP (c) dissolved in PBS and Pluronic F-127 regarding HSV-1. The results are presented as the virus titer percentage, with the porphyrin regarding the virus titer in control, which was taken as 100%. Each point represents the mean ± deviation of three experiments with three replicates.
Fig. 15S. Virucidal activity of 3a (A), 3b (B), TMePyP (C) compounds dissolved in PBS and Pluronic F127 regarding to HSV-1. HSV-1 at tenfold dilutions DMEM-1%FCS was incubated with different concentration of the compounds ranging from 3 µM/L to 100 µM/L in DMEM-1% FCS or without of compound , each sample in volume 1mL, for 2 hours at 36.8°C in 5% CO 2 atmosphere. After treatment the samples were applied to the Vero DMEM-5%FCS in 96 wells plates) monolayers in 96 wells plates (100 µL/well). and after 4 days of cultivation at 36.8 °C in 5% CO 2 atmosphere titers were calculated based on the development of CPE and the inhibi-tory activity of each compounds was calculated in relation to the control (HSV -1 without compounds). Data are reported as means of three independent assays, each run in tripli cate. The results were processed using the GraphPad Prism 5 program. […]

[2] abbreviates: Pluronic F-127 (F127) micellar formulation.

One may read the CC50 as the concentration giving 50% cytotoxicity. A higher CC50 goes with better tolerance by the cells. One may read the viability as a read-out of living cells in per cent, often relative to untreated cells. As a reminder, the IC50 is the concentration needed to halve the response being measured.

The compound `O=C(CC[n+]1ccccc1)Oc1ccc(-c2c3nc(c(-c4ccc(OC(=O)CC[n+]5ccccc5)cc4)c4ccc([nH]4)c(-c4ccc(OC(=O)CC[n+]5ccccc5)cc4)c4nc(c(-c5ccc(OC(=O)CC[n+]6ccccc6)cc5)c5ccc2[nH]5)C=C4)C=C3)cc1` [3a] returned a CC50 in the data set with Vero cells of more than 100 µM. Moreover, the toxic concentration with Vero cells (used to choose concentrations for the virucidal test) was more than 100 µM. In addition, in data set [1] (+F127 (Pluronic F-127)), the viability at 72 h, 0.39 µM turned out to be 93 ± 4.6%; the viability at 72 h, 0.78 µM is 99.2 ± 4.2%; the viability at 72 h, 1.56 µM was found to be 95.6 ± 4.2%; the viability at 72 h, 3.13 µM is 90.8 ± 2.3%. In data set [1] (+F127 (Pluronic F-127)), the viability at 72 h, 6.25 µM was found to be 90.3 ± 7.8%; the viability at 72 h, 12.5 µM was 91.7 ± 2.8%; the viability at 72 h, 25 µM is 89.1 ± 4.1%; the viability at 72 h, 50 µM was found to be 92.9 ± 2%. Further, the viability at 72 h, 100 µM in data set [1] (+F127 (Pluronic F-127)) came out at 80.4 ± 1.8%. Further, in data set [1] (-F127 (PBS)), the viability at 72 h, 0.39 µM stood at 94.6 ± 2.9%; the viability at 72 h, 0.78 µM turned out to be 102 ± 4.2%; the viability at 72 h, 1.56 µM stood at 108 ± 15.4%; the viability at 72 h, 3.13 µM was determined as 106 ± 4.5%. Also, in data set [1] (-F127 (PBS)), the viability at 72 h, 6.25 µM amounted to 105 ± 8.7%; the viability at 72 h, 12.5 µM was found to be 94.7 ± 5.1%; the viability at 72 h, 25 µM was determined as 90.9 ± 10%; the viability at 72 h, 50 µM was found to be 91.9 ± 2.2%. Further, the viability at 72 h, 100 µM in data set [1] (-F127 (PBS)) is 76.8 ± 6.9%. Moreover, the CC50 at 72 h in data set [1] was more than 100 µM. In addition, the IC50 in the data set on HSV-1 (strain RD) (setting [2]) turned out to be 99.8 µM. The “concentration showing a virucidal effect” value with HSV-1 (strain RD) (PBS and Pluronic F-127, only at the maximum concentration) was 100 µM.

In the data set on Vero cells, `C[n+]1ccc(-c2c3nc(c(-c4cc[n+](C)cc4)c4ccc([nH]4)c(-c4cc[n+](C)cc4)c4nc(c(-c5cc[n+](C)cc5)c5ccc2[nH]5)C=C4)C=C3)cc1` [TMePyP, 5,10,15,20-tetrakis(1-methyl-4-pyridinio)porphyrin tetraiodide, reference compound] yielded a CC50 of more than 100 µM. Further, in data set [1] (+F127 (Pluronic F-127)), the viability at 72 h, 0.39 µM worked out at 82.9 ± 5.4%; the viability at 72 h, 0.78 µM worked out at 79.9 ± 2.3%; the viability at 72 h, 1.56 µM was 90.2 ± 9.7%; the viability at 72 h, 3.13 µM was determined as 95.2 ± 6%. Moreover, in data set [1] (+F127 (Pluronic F-127)), the viability at 72 h, 6.25 µM stood at 90.4 ± 2.7%; the viability at 72 h, 12.5 µM worked out at 83 ± 8.6%; the viability at 72 h, 25 µM stood at 95.2 ± 3.2%; the viability at 72 h, 50 µM worked out at 114 ± 6.2%. Moreover, the viability at 72 h, 100 µM in data set [1] (+F127 (Pluronic F-127)) was found to be 104 ± 1.2%. In data set [1] (-F127 (PBS)), the viability at 72 h, 3.13 µM came out at 101 ± 5%; the viability at 72 h, 6.25 µM came out at 98.5 ± 5%; the viability at 72 h, 12.5 µM is 97.4 ± 4.6%; the viability at 72 h, 25 µM is 95.3 ± 5.3%. Further, in data set [1] (-F127 (PBS)), the viability at 72 h, 50 µM amounted to 93.7 ± 5.5% and the viability at 72 h, 100 µM is 89.6 ± 6.8%. The compound also registered a CC50 at 72 h in data set [1] of more than 100 µM. Further, the IC50 in the data set with HSV-1 (strain RD) (setting [2]) was determined as 13.3 µM. For the same compound, the IC50 with HSV-1 (strain RD) (dissolved in PBS) amounted to 2.3 µM.
